The conditions of data set [1]: humans, given as a nutritional additive; cited from earlier work.
The conditions of data set [2]: cited from earlier work.
The nature of data set [3]: Dilution experiments of saturated HDACi/salt former solutions. The data set is classed as physicochemical. As to conditions: for appearance after dilution with pH 7.4 phosphate buffer: 0.47 M and 0.314 M saturated samples.
The nature of data set [4]: Solubility enhancement with acidic and basic in situ salt formers (~[…]).
The nature of data set [5]: Phase solubility for arginine and meglumine.
Data set [6] can be described thus: Solubility enhancement with cyclodextrin and in situ salt formers. The data set is classed as physicochemical.
The conditions of data set [7]: human, in vivo, iv.
The nature of data set [8]: Oral administration of PXD-101 (gelatin capsule) to subjects. In kind it is in vivo, human. From the text: Several subjects received PXD-101 in an oral formulation (e.g., PXD-101 in a gelatin capsule). […] Bioavailability for the oral formulation was approximately 33%.
Data set [9] is described as follows: Plasma PK analysis after 30-min I.V. infusion in subjects with advanced cancer. In kind it is in vivo, human. As for the experimental part: Plasma PK analysis was performed for subjects of all dose groups on days 1 and 5 of cycle 1 following 30 minutes of I.V. infusion.
The test system of data set [10] is histone (H4 and/or H3) acetylation in peripheral blood mononuclear cells. The experiment in a line: Pharmacodynamic analysis: histone acetylation in peripheral blood mononuclear cells. The following applies: intravenous administration. In kind it is in vivo, human. From the text: Histones were isolated and probed with anti-acetylated histone (H4 and/or H3) antibody followed by HRP-secondary antibody.

The nature of data set [11]: Solubility of PXD-101 in demineralised water. The data set is classed as physicochemical.
Another data set is described as follows: physchem. As to conditions: thermodynamic from solid, PXD-101 Concentration.
The nature of data set [12]: pH solubility profile in buffered 25% w/v HP-β-CD. In kind it is physicochemical. From the text:
It was noted that zwitterions can be self-buffering and this effect caused some instability in the buffering capacity of the buffer systems at high pH. Therefore, the required pH could only be achieved by adjusting the pH of the system by the addition of 1 M NaOH.

The nature of data set [13]: Solubility enhancement with cyclodextrins (saturated PXD-101 samples; HP-β-CD phase solubility). The data set is classed as physicochemical. The following applies: saturated PXD-101 in aqueous cyclodextrin 250 mg/mL (α-CD 100 mg/mL). On the procedure: Saturated samples of PXD-101 were prepared in aqueous solutions of two natural cyclodextrins (α-CD and γ-CD) and hydroxypropyl derivatives of the α, β and γ cyclodextrins (HP-α-CD, HP-β-CD and HP-γ-CD). […] The calculated saturated solubilities of the complexed HDACi were plotted against the concentration of cyclodextrin. […] This type of phase solubility diagram for cyclodextrins is referred to as an A-Type phase solubility plot. […] This deviation may be due to experimental error caused by the decision to use of mass, instead of volume, to dispense the more concentrated cyclodextrin samples due to their viscosity. Alternatively, it is possible that there is a slight deviation from the linear A-Type phase solubility behaviour.

[14] abbreviates: PXD-101 in basic in situ salt former, […].
Where [15] appears, read: PXD-101 in acidic in situ salt former, […].
Setting [16] is: 150 mg/m^2, 30-min I.V. infusion, cycle 1.
[17] abbreviates: 300 mg/m^2, 30-min I.V. infusion, cycle 1.
[18] abbreviates: 600 mg/m^2, 30-min I.V. infusion, cycle 1.
Setting [19] is: 900 mg/m^2, 30-min I.V. infusion, cycle 1.
The mark [20] stands for this setting: 1200 mg/m^2, 30-min I.V. infusion, cycle 1.

The values that follow come from patent publication US8835501B2, “Pharmaceutical formulations of HDAC inhibitors” (TopoTarget UK Limited, priority 2005, dated 2014).

Usually bioavailability stands for the share of a dose that reaches the circulation, judged against a reference dose that is usually intravenous. A low value points to little systemic uptake. One may read the Cmax as the peak of the concentration-time curve. Usually AUC(0-t) stands for exposure summed from dosing to a finite time, without extrapolation to infinity. High values mean more exposure, low ones less exposure. By solubility is commonly meant the dissolved amount per volume that the medium holds. Low values mean little dissolved substance, high ones much dissolved substance. For orientation: thermodynamic solubility means the concentration in solution at equilibrium with solid.

Molecules are shown by their SMILES. Values after ≈ are worked out from the molar mass of the structure shown. Values joined by “and” are separate entries in the source; they are usually repeats but may differ in a detail not shown here. Equal entries are not always repeated. Where two headings read alike, the source gives them in different places.

As for `N=C(N)NCCC[C@H](N)C(=O)O` [Arginine, (S)-2-amino-5-[(aminoiminomethyl)-amino]pentanoic acid], the well tolerated dose entry in data set [1] is “up to 30 g/kg”. Further, the “content of saturated aqueous solution” value in [2] (water, 21° C.) is on record as 15 % w/w. Moreover, the “appearance after dilution with pH 7.4 phosphate buffer” value in data set [3] is “initially clear solutions but some crystallisation”.
On to `OCCNCCO` [Diethanolamine], for which the “pH of Solution” value in [4] (setting [14]) is 9.13.
`NCCN` [Ethylenediamine]: the “dilution of saturated HDACi solution to infusion concentration of […]” value in [3] (basic salt former solutions diluted with 5% w/v glucose and 0.9% w/v saline) was “incompatibility”.
For `O=C(O)[C@H](O)[C@@H](O)[C@H](O[C@@H]1O[C@H](CO)[C@H](O)[C@H](O)[C@H]1O)[C@H](O)CO` [Lactobionic Acid], the “pH of Solution” value in data set [4] (setting [15]) worked out at 2.43.
`NCCCC[C@H](N)C(=O)O` [Lysine]: the “pH of Solution” value in data set [4] was 9.11.
In the case of `O=C(O)/C=C\C(=O)O` [Maleic Acid], in [4] (setting [15]), the “pH of Solution” value amounted to 1.65.
`O=C(O)CC(O)C(=O)O` (centres unmarked) [Malic Acid]: the “pH of Solution” value in data set [4] (setting [15]) was found to be 2.19. In addition, the “S/D Molar ratio (salt former-to-HDACi)” value in data set [4] (acidic in situ salt former, […]) came to 309.
Consider `CNC[C@H](O)[C@@H](O)[C@H](O)[C@H](O)CO` [Meglumine, 1-deoxy-1-(methylamino)-D-glucitol], for which the solubility in water in data set [2] (25° C.) is approximately 100 g in 100 mL. In addition, the “pH of saturated HDACi solution” value is given as 9.20 in data set [5] (basic salt ×1, 0.157 M); 9.33 in [5] (basic salt ×2, 0.314 M); 9.40 in data set [5] (basic salt ×3, 0.47 M). Also, the “Predicted Salt Former Conc. to achieve target PXD-101 Conc.” value in data set [5] (target PXD-101 50 mg/mL) is 79.2 mg/mL; in data set [5] (target PXD-101 70 mg/mL) it was 126.9 mg/mL; in [5] (target PXD-101 100 mg/mL), 158.3 mg/mL. In addition, the “appearance after dilution with pH 7.4 phosphate buffer” value in [3] is given as “turbid solutions”.
Take `O=C(/C=C/c1cccc(S(=O)(=O)Nc2ccccc2)c1)NO` [PXD-101, N-hydroxy-3-(3-phenylsulfamoyl-phenyl)-acrylamide]: the “PXD-101 Concentration” value in [6] (25% w/v HP-β-CD + arginine 0.157 M (27.4 mg/mL)) is 39.2 mg/mL; in [6] (25% w/v HP-β-CD + arginine 0.314 M (54.8 mg/mL)) it was 57.1 mg/mL and 57.0 mg/mL; in [6] (25% w/v HP-β-CD + meglumine 0.157 M (30.7 mg/mL)), 43.0 mg/mL; in data set [6] (25% w/v HP-β-CD + meglumine 0.314 M (61.4 mg/mL)) it was 62.5 mg/mL. Further, the “enhancement of HDACi solubility” value in data set [6] (using one or more of cyclodextrin, arginine, meglumine) was approximately 500 fold. The “laboratory tests / hematological toxicity” value in data set [7] is on record as “no hematological toxicity was identified”. Besides, the “main HDACi-related adverse events” value in data set [7] was “fatigue, nausea, vomiting (infusion-related), and phlebitis”. The other adverse events result in data set [7] was “headache, diarrhea, constipation, and dyspnea”. Further, the “plasma levels, oral versus intravenous” value in data set [8] (900 and 1200 mg/m^2, FIG. 12) was “remain higher when dosed orally”. Moreover, the bioavailability in data set [8] (human, plasma, oral formulation (gelatin capsule)) was approximately 33%. The tolerability entry in [8] (oral dosing, preliminary data) is on record as “good tolerability”. Besides, the “AUC0-t/AUC0-∞” value came out at 99.0 ± 0.7% in data set [9] (setting [16]); 99.7 ± 0.1% in data set [9] (setting [17]); 99.9 ± 0.0% in data set [9] (setting [18]); 99.8 ± 0.1% in data set [9] (setting [19]); 99.8 ± 0.1% in [9] (setting [20]). Further, the “AUCday 5/AUCday 1” value came to 115 ± 22% in [9] (setting [16]), 112 ± 21% in [9] (setting [17]) and 97% in data set [9] (setting [18]). For the same molecule, the CLs in data set [9] (setting [16]) is given as 122.6 ± 30.6 L/hr/m^2; in data set [9] (setting [17]), 94.6 ± 34.9 L/hr/m^2; in [9] (setting [18]), 59.6 ± 16.0 L/hr/m^2; in data set [9] (setting [19]), 63.5 ± 16.4 L/hr/m^2; in [9] (setting [20]) it was 66.6 ± 33.5 L/hr/m^2. In addition, the Vd worked out at 115.1 ± 43.5 L/m^2 in [9] (setting [16]); 88.8 ± 31.8 L/m^2 in data set [9] (setting [17]); 57.6 ± 13.9 L/m^2 in [9] (setting [18]); 48.8 ± 9.8 L/m^2 in data set [9] (setting [19]); 90.2 ± 87.3 L/m^2 in data set [9] (setting [20]). Besides, the highest concentration (Cmax) in data set [9] (setting [18]) worked out at 31177 ± 8968 ng/mL; in data set [9] (human, plasma, iv, 150 mg/m^2, 30-min I.V. infusion, cycle 1, read-out: Cmax), 6560 ± 2160 ng/mL; in [9] (human, plasma, iv, 300 mg/m^2, 30-min I.V. infusion, cycle 1, read-out: Cmax), 15500 ± 6240 ng/mL; in data set [9] (human, plasma, iv, 900 mg/m^2, 30-min I.V. infusion, cycle 1, read-out: Cmax), 53800 ± 6380 ng/mL; in data set [9] (human, plasma, iv, 1200 mg/m^2, 30-min I.V. infusion, cycle 1, read-out: Cmax), 52400 ± 12700 ng/mL. Besides, the “accumulation on repeated dosing” value in [9] (I.V. days 1 to 5) is “no HDACi accumulation”. The “dose dependence of plasma levels and AUC” value in [9] (I.V., 150-1200 mg/m^2) was “dose proportional”. Moreover, the AUC(0-t) in data set [9] (human, plasma, iv, 150 mg/m^2, 30-min I.V. infusion, cycle 1) stood at 1270 ± 272 ng·h/mL; in data set [9] (human, plasma, iv, 300 mg/m^2, 30-min I.V. infusion, cycle 1) it was 3500 ± 1100 ng·h/mL; in data set [9] (human, plasma, iv, 600 mg/m^2, 30-min I.V. infusion, cycle 1) it was 10700 ± 3010 ng·h/mL; in data set [9] (human, plasma, iv, 900 mg/m^2, 30-min I.V. infusion, cycle 1), 14700 ± 3410 ng·h/mL; in [9] (human, plasma, iv, 1200 mg/m^2, 30-min I.V. infusion, cycle 1) it was 22000 ± 11000 ng·h/mL. The half-life in data set [9] (human, plasma, iv, 150 mg/m^2, 30-min I.V. infusion, cycle 1, read-out: t1/2) was 46.6 ± 8.7 min; in [9] (human, plasma, iv, 300 mg/m^2, 30-min I.V. infusion, cycle 1, read-out: t1/2) it was 44.6 ± 8 min; in [9] (human, plasma, iv, 600 mg/m^2, 30-min I.V. infusion, cycle 1, read-out: t1/2), 43.4 ± 6.7 min; in [9] (human, plasma, iv, 900 mg/m^2, 30-min I.V. infusion, cycle 1, read-out: t1/2), 54.2 ± 8.7 min; in data set [9] (human, plasma, iv, 1200 mg/m^2, 30-min I.V. infusion, cycle 1, read-out: t1/2) it was 85.5 ± 19.6 min; in data set [9] (human, plasma, iv, I.V., across dose levels 150-1200 mg/m^2, read-out: elimination half-life), 47 to 86 min. Besides, the “time after administration at which increased acetylated histones could be detected” value in data set [10] is “up to 24 hours”. In data set [11], the concentration in solution (solubility) came to 0.14 mg/mL (≈ 0.44 mM). In addition, the thermodynamic solubility in “physchem” (pH 9.07, aqueous with cosolvent or surfactant or cyclodextrin) came to 13.5 mg/mL (≈ 42.4 mM); in the data set “physchem” (pH 9.1, aqueous with cosolvent or surfactant or cyclodextrin), 7.9 mg/mL (≈ 24.8 mM); in “physchem” (pH 9.19, aqueous with cosolvent or surfactant or cyclodextrin) it was 31.1 mg/mL (≈ 97.7 mM); in “physchem” (pH 9.2, aqueous with cosolvent or surfactant or cyclodextrin), 21.2 mg/mL (≈ 66.6 mM); in the data set “physchem” (pH 9.33, aqueous with cosolvent or surfactant or cyclodextrin), 39.1 mg/mL (≈ 123 mM); in “physchem” (pH 9.4, aqueous with cosolvent or surfactant or cyclodextrin) it was 57.3 mg/mL (≈ 180 mM). The “PXD-101 Conc.” value in data set [12] (pH adjusted with 1M NaOH, actual pH 8.91) came to 36.0 mg/mL; in [12] (target pH 4, actual pH 4.35), 14.5 mg/mL; in data set [12] (target pH 6, actual pH 5.99), 17.3 mg/mL; in data set [12] (target pH 7.4, actual pH 7.28), 18.8 mg/mL; in data set [12] (target pH 9.5, actual pH 8.09), 19.4 mg/mL.
In the case of `NC(CO)(CO)CO` [Tris], the “pH of Solution” value in data set [4] (setting [14]) was 8.97.
As to `OC[C@H]1O[C@@H]2O[C@H]3[C@H](O)[C@@H](O)[C@@H](O[C@H]4[C@H](O)[C@@H](O)[C@@H](O[C@H]5[C@H](O)[C@@H](O)[C@@H](O[C@H]6[C@H](O)[C@@H](O)[C@@H](O[C@H]7[C@H](O)[C@@H](O)[C@@H](O[C@H]1[C@H](O)[C@H]2O)O[C@@H]7CO)O[C@@H]6CO)O[C@@H]5CO)O[C@@H]4CO)O[C@@H]3CO` [α-CD, α-cyclodextrin], the “HDACi (PXD-101) Concentration” value in data set [13] came to 0.65 mg/mL.
